Measurements published in US20120196935A1, “METHODS FOR DETECTING AUTODIGESTION” (THE REGENTS OF THE UNIVERSITY OF CALIFORNIA, priority 2009, published 2012).

Test system: experimental rats in hemorrhagic shock
Assay: hemorrhagic shock in rats with blockage of digestive enzymes in the lumen of the intestine
Assay type: in vivo
Conditions: hemorrhagic shock (two hour reduction of blood pressure), inhibitor infused into the lumen of the intestine
Description: Fetid organic material was released from animals subject to autodigestion by pancreatic enzymes, but not from those that were not subject to autodigestion. Non-surviving animals uniformly released fetid organic material, while survivors produced dramatically lower levels. For example, animals with blockage of digestive enzymes in the lumen of the intestine (by infusion of pancreatic serine protease inhibitors, such as cyclokapron) in hemorrhagic shock had lower levels of substances such as putrescine, cadaverine, methional, and transthyretin.

SMILES: NC[C@H]1CC[C@H](C(=O)O)CC1 [cyclokapron]
- levels of substances such as putrescine, cadaverine, methional, and transthyretin: lower levels
